The structures appear in SMILES notation.

These results are taken from US10793568B2, “Hormone receptor modulators for treating metabolic conditions and disorders” (ARDELYX, INC., priority 2016, dated 2020).

Assay [1] concerns the target human Farnesoid X receptor ligand-binding domain/Gal4 DNA binding domain chimera (Homo sapiens (Human), UniProt Q96RI1). Put plainly: Cell-based assay of FXR activation (FXR-UAS-bla HEK 293T beta-lactamase reporter). The settings on record: cellular FXR beta-lactamase reporter assay; for Emax: HEK-293T, extent of activation relative to GW4064, read-out: % Efficacy; for EC50: FXR-UAS-bla HEK 293T cells, 16 h, pEC50 = -log EC50. In outline: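 HEK 293T cells stably expressing a Gal4-fused human FXR LBD and a UAS-driven beta-lactamase reporter were incubated with serially diluted compounds for 16 h at 37 °C in phenol red-free DMEM with 2% charcoal-stripped FBS. CCF4 FRET read-out: excitation 409 nm, emission 447 nm. pEC50 comes from a 3-parameter logistic fit, and efficacy is given as % of GW4064.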

Assay [2] addresses ligand binding domain of human FXR (Homo sapiens (Human), UniProt Q96RI1). Put plainly: FXR ligand binding assay (LanthaScreen TR-FRET, SRC2-2 peptide recruitment). The settings on record: for pEC50: -log EC50, concentration required to produce 50% activation; for Emax: extent of activation relative to GW4064, read-out: % Efficacy.

human Farnesoid X receptor ligand-binding domain/Gal4 DNA binding domain chimera, sequence (Q96RI1 262-486, change not shown): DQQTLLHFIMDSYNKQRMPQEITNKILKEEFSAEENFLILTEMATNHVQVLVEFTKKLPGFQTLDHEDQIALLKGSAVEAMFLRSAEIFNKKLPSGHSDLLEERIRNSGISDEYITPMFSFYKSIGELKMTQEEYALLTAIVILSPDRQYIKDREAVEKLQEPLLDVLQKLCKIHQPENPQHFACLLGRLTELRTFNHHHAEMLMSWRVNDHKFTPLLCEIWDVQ
human Farnesoid X receptor ligand-binding domain/Gal4 DNA binding domain chimera, sequence (P04386 1-147 partner): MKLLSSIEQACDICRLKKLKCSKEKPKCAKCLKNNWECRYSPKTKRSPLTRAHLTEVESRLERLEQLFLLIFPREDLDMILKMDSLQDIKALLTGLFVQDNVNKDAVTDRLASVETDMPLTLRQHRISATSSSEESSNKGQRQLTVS
ligand binding domain of human FXR, sequence (Q96RI1 262-486): as the sequence (Q96RI1 262-486, change not shown) above

As for `O=C(NS(=O)(=O)C1CCOC1)c1ccc(N2C[C@@H]3C[C@H]2C[C@H]3OCc2c(-c3c(Cl)cccc3Cl)noc2C2CC2)cc1` (stereo partly drawn) [Compound I-185, 4-((1S,4S,5R)-5-((5-cyclopropyl-3-(2,6-dichlorophenyl)isoxazol-4-yl)methoxy)-2-azabicyclo[2.2.1]heptan-2-yl)-N-((tetrahydrofuran-3-yl)sulfonyl)benzamide], in assay [1], the Emax was found to be 105% and the midpoint of the response, the EC50, lay at 0.1 nM. Besides, in assay [2], the pEC50 turned out to be 8.9 and the Emax was found to be 155%.
Regarding `O=C(NS(=O)(=O)CC1CCOC1)c1ccc(N2C[C@@H]3C[C@H]2C[C@H]3OCc2c(-c3c(Cl)cccc3Cl)noc2C2CC2)cc1` (stereo partly drawn) [Compound I-186, 4-((1S,4S,5R)-5-((5-cyclopropyl-3-(2,6-dichlorophenyl)isoxazol-4-yl)methoxy)-2-azabicyclo[2.2.1]heptan-2-yl)-N-(((tetrahydrofuran-3-yl)methyl)sulfonyl)benzamide], in assay [1], the Emax stood at 107% and a half-maximal effect (EC50) was put at 0.158 nM. Besides, in assay [2], the pEC50 is reported as 8.9 and the Emax is 134%.
`CN1CCC(S(=O)(=O)NC(=O)c2ccc(N3C[C@@H]4C[C@H]3C[C@H]4OCc3c(-c4c(Cl)cccc4Cl)noc3C3CC3)cc2)CC1` [Compound I-187, 4-((1S,4S,5R)-5-((5-cyclopropyl-3-(2,6-dichlorophenyl)isoxazol-4-yl)methoxy)-2-azabicyclo[2.2.1]heptan-2-yl)-N-((1-methylpiperidin-4-yl)sulfonyl)benzamide]: in assay [1], the Emax was 104% and the EC50 was 10 nM. Besides, in assay [2], the pEC50 came to 9.2 and the Emax was found to be 156%.
Turning to `O=C(NS(=O)(=O)c1cn[nH]c1)c1ccc(N2C[C@@H]3C[C@H]2C[C@H]3OCc2c(-c3c(Cl)cccc3Cl)noc2C2CC2)cc1` [Compound I-188, N-((1H-pyrazol-4-yl)sulfonyl)-4-((1S,4S,5R)-5-((5-cyclopropyl-3-(2,6-dichlorophenyl)isoxazol-4-yl)methoxy)-2-azabicyclo[2.2.1]heptan-2-yl)benzamide], in assay [1], the Emax was 100% and the EC50 is 6.31 nM. In addition, in assay [2], the Emax was determined as 150%.
In the case of `CC(C)CCS(=O)(=O)NC(=O)c1ccc(N2C[C@@H]3C[C@H]2C[C@H]3OCc2c(-c3c(Cl)cccc3Cl)noc2C2CC2)c(F)c1` [Compound I-190, 4-((1S,4S,5R)-5-((5-cyclopropyl-3-(2,6-dichlorophenyl)isoxazol-4-yl)methoxy)-2-azabicyclo[2.2.1]heptan-2-yl)-3-fluoro-N-(isopentylsulfonyl)benzamide], in assay [1], the Emax stood at 113% and the EC50 is 0.0631 nM. For the same compound, in assay [2], the pEC50 amounted to 8.4 and the Emax was determined as 163%.
`CCCCCS(=O)(=O)NC(=O)c1ccc(N2C[C@@H]3C[C@H]2C[C@H]3OCc2c(-c3c(Cl)cccc3Cl)noc2C2CC2)c(F)c1` [Compound I-191, 4-((1S,4S,5R)-5-((5-cyclopropyl-3-(2,6-dichlorophenyl)isoxazol-4-yl)methoxy)-2-azabicyclo[2.2.1]heptan-2-yl)-3-fluoro-N-(pentylsulfonyl)benzamide]: in assay [1], the Emax is 111% and the EC50 is 0.0398 nM. Besides, in assay [2], the negative logarithm of the EC50 (pEC50) was 8.4 and the Emax stood at 163%.
Regarding `CCCCCCCCS(=O)(=O)NC(=O)c1ccc(N2C[C@@H]3C[C@H]2C[C@H]3OCc2c(-c3c(Cl)cccc3Cl)noc2C2CC2)c(F)c1` [Compound I-192, 4-((1S,4S,5R)-5-((5-cyclopropyl-3-(2,6-dichlorophenyl)isoxazol-4-yl)methoxy)-2-azabicyclo[2.2.1]heptan-2-yl)-3-fluoro-N-(octylsulfonyl)benzamide], in assay [1], the Emax stood at 106% and the midpoint of the response, the EC50, lay at 0.2 nM. Further, in assay [2], the pEC50 was determined as 7.9 and the Emax worked out at 152%.
For the compound `CCOCCOCCS(=O)(=O)NC(=O)c1ccc(N2C[C@@H]3C[C@H]2C[C@H]3OCc2c(-c3c(Cl)cccc3Cl)noc2C2CC2)c(F)c1` [Compound I-193, 4-((1S,4S,5R)-5-((5-cyclopropyl-3-(2,6-dichlorophenyl)isoxazol-4-yl)methoxy)-2-azabicyclo[2.2.1]heptan-2-yl)-N-((2-(2-ethoxyethoxy)ethyl)sulfonyl)-3-fluorobenzamide], in assay [1], the Emax came to 114% and it took 1.58 nM to reach a half-maximal effect (EC50). In addition, in assay [2], the pEC50 came out at 8.2 and the Emax is 138%.
As to `CCCS(=O)(=O)NC(=O)c1ccc(N2C[C@@H]3C[C@H]2C[C@H]3OCc2c(-c3c(Cl)cccc3Cl)noc2C2CC2)cc1F` [Compound I-194, 4-((1S,4S,5R)-5-((5-cyclopropyl-3-(2,6-dichlorophenyl)isoxazol-4-yl)methoxy)-2-azabicyclo[2.2.1]heptan-2-yl)-2-fluoro-N-(propylsulfonyl)benzamide], in assay [1], the Emax amounted to 104% and the EC50 was 0.2 nM. Also, in assay [2], the pEC50 is reported as 9 and the Emax came out at 141%.
The like results for `O=C(NS(=O)(=O)C1CC1)c1ccc(N2C[C@@H]3C[C@H]2C[C@H]3OCc2c(-c3c(Cl)cccc3Cl)noc2C2CC2)cc1F` [Compound I-195, 4-((1S,4S,5R)-5-((5-cyclopropyl-3-(2,6-dichlorophenyl)isoxazol-4-yl)methoxy)-2-azabicyclo[2.2.1]heptan-2-yl)-N-(cyclopropylsulfonyl)-2-fluorobenzamide] were, in that order, 109%, 0.316 nM, 8.8 and 144%.
With `O=C(NS(=O)(=O)C1CC1)c1ccc(N2C[C@@H]3C[C@H]2C[C@H]3OCc2c(-c3c(Cl)cccc3Cl)noc2C2(F)CC2)cc1` [Compound I-196, N-(cyclopropylsulfonyl)-4-((1S,4S,5R)-5-((3-(2,6-dichlorophenyl)-5-(1-fluorocyclopropyl)isoxazol-4-yl)methoxy)-2-azabicyclo[2.2.1]heptan-2-yl)benzamide], in assay [1], the Emax was 110% and the EC50 is 0.794 nM. In assay [2], the pEC50 was determined as 8.5 and the Emax stood at 154%.
For `O=C(NS(=O)(=O)C1CC1)c1ccc(N2C[C@@H]3C[C@H]2C[C@H]3OCc2c(-c3c(Cl)cccc3Cl)noc2C2(F)CC2)c(F)c1` [Compound I-197, N-(cyclopropylsulfonyl)-4-((1S,4S,5R)-5-((3-(2,6-dichlorophenyl)-5-(1-fluorocyclopropyl)isoxazol-4-yl)methoxy)-2-azabicyclo[2.2.1]heptan-2-yl)-3-fluorobenzamide], in that order: 111%, 0.501 nM, 8.5 and 167%.
For the compound `CCCS(=O)(=O)NC(=O)c1ccc(N2C[C@@H]3C[C@H]2C[C@H]3OCc2c(-c3c(Cl)cccc3Cl)noc2C2(F)CC2)c(F)c1` [Compound I-198, 4-((1S,4S,5R)-5-((3-(2,6-dichlorophenyl)-5-(1-fluorocyclopropyl)isoxazol-4-yl)methoxy)-2-azabicyclo[2.2.1]heptan-2-yl)-3-fluoro-N-(propylsulfonyl)benzamide], in assay [1], the Emax was determined as 112% and the EC50 was 0.501 nM. Also, in assay [2], the pEC50 is on record as 8.5 and the Emax stood at 178%.
